Laboratory results: patent US9732061B2, “Cinnoline derivatives useful as CB-1 receptor inverse agonists” (Janssen Pharmaceutica NV, priority 2015, dated 2017)

Experiments:
[1] = target: Human CB1R (Cannabanoid receptor 1) (Homo sapiens (Human), UniProt P21554); assay: CB-1 in vitro cAMP (HTRF) assay; type: cell-based; conditions: HEK-293 cells stably transfected with human CB1R, 250 nM Forskolin, mean where tested more than once
Description: (§1) CB1 and CB2 receptors are Gi-coupled GPCR. Activation of CB1 and CB2 receptors results in a decrease in cAMP production. An inverse agonist of the CB1 or CB2 receptor results in the opposite effect, an increase of cAMP production. The principle of this assay is based on HTRF® technology (Homogeneous Time-Resolved Fluorescence). The method is a competitive immunoassay between native cAMP produced by cells and the cAMP labeled with the fluorophore d2. The tracer binding is quantified by a Mab anti-cAMP labeled with Eu3+TBP-NHS Cryptate (supplied as part of the assay kit). The specific signal (i.e. energy transfer) is inversely proportional to the concentration of cAMP in the standard or sample.
(§2) Biological Example 1: CB-1 and CB-2 In Vitro Assay
(§3) Human CB1R (Cannabanoid receptor 1) was stably transfected in HEK-293 cells (DiscoveRx, cat: 93-0200C1). Human CB2R (Cannabanoid receptor 2) was stably transfected in HEK-293 cells (DiscoveRx, cat: 93-0201C1). Cell cultures were maintained in media: DMEM (Invitrogen Cat#12430-054) supplemented with 10% HI FBS (Invitrogen Cat#16140-071), 1% L-glutamine (Invitrogen Cat#25030-081), 0.2 mg/ml Hygromycin B (Invitrogen Cat#10687-010), 600 μg/mL G418 (Invitrogen Cat#10131-035), and 1×Penn/Strep (Invitrogen 15140-122). After cell expansion, aliquots were cryo-stored in media containing 5% DMSO (Pierce Cat#20684).
(§4) One day prior to experiments media was warmed to 37° C. and the cryo-stored cells were thawed in a 37° C. water bath. The cells were then added to media (10× volume) and the mixture was centrifugated at 1000 RPM for 5 min. The supernate was removed and the cells were re-suspended in media. A sample of the cell suspension was evaluated on a Cedex XS automated cell counter (Innovatis Systems) to determine viable cells/ml. Additional media was added to the cells to achieve a final cell density of 4E5 cells/mL. The cells were then plated into 384 well PDL white solid bottom plates (Greiner, Cat#781945) at 20 μL per well using a Multidrop (Thermo Scientific). Cells were removed from Row P (location of cAMP standards). Two columns of cells were plated into a clear bottom 384 well PDL coated plate (Greiner, Cat#781944) to view confluence the day of the assay. The cell plates were lidded and stored for 15 minutes in a hood, then transferred to an incubator (37° C., 5% CO2, 95% humidity) overnight.
(§5) DMSO was added to all wells of 384 well V bottom polystyrene plate (Greiner, Cat#781280) except to columns 1 and 13, rows O and P and wells M13-M23 and N13-N23. Test compounds (60 μL, 10 mM) were added to Column 1 and 13 (A1 through N1 and A13 through L13). Test compounds were serially diluted 1/3 by transferring and mixing 20 μl sample with 40 μL DMSO.
(§6) DMSO (40 μL) was added to wells of 384 well V bottom polystyrene plate: O2 through O11, M14 through M23, N14 through N23, and O14 through O23. AM630 (also known as [6-iodo-2-methyl-1-[2-(4-morpholinyl)ethyl]-1H-indol-3-yl](4-methoxyphenyl)-methanone, Cayman Chemical, Cat#10006974) (60 μL, 10 mM) was added to O1; and 1-(2,4-dichlorophenyl)-7-[(4-fluorophenyl)methylene]-4,5,6,7-tetrahydro-N-1-piperidinyl-1H-indazole-3-carboxamide (60 μL, 10 mM) was added to N13. The control was serially diluted 1/3 by transferring and mixing 20 μl sample with 40 μL DMSO. This process resulted 11 doses per control, 10 mM to […].
(§7) Cells plated the day prior to the assay in clear bottom plates were viewed on an inverse microscope to ensure confluency in the range of 60-75%. […]

[2] = target: Human CB2R (Cannabanoid receptor 2) (Homo sapiens (Human), UniProt P34972); assay: CB-2 in vitro cAMP (HTRF) assay; type: cell-based; conditions: HEK-293 cells stably transfected with human CB2R, 250 nM Forskolin, mean where tested more than once
Description: as §1, §2, §3, §4, §5, §6, §7

Chain of Human CB1R (Cannabanoid receptor 1) (P21554 whole entry): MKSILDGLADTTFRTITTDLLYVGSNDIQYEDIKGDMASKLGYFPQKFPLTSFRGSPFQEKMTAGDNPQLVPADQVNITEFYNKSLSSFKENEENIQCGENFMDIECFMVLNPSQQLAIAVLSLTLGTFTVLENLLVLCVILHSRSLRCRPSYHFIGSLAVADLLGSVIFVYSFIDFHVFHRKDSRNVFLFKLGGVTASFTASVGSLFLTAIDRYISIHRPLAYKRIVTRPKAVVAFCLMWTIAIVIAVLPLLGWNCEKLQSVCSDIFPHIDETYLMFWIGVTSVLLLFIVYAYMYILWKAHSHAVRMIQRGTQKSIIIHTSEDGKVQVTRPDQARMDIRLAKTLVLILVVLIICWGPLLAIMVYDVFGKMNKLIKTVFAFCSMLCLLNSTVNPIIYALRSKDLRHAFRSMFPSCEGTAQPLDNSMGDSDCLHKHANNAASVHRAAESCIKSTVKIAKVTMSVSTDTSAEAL
Chain of Human CB2R (Cannabanoid receptor 2) (P34972 whole entry): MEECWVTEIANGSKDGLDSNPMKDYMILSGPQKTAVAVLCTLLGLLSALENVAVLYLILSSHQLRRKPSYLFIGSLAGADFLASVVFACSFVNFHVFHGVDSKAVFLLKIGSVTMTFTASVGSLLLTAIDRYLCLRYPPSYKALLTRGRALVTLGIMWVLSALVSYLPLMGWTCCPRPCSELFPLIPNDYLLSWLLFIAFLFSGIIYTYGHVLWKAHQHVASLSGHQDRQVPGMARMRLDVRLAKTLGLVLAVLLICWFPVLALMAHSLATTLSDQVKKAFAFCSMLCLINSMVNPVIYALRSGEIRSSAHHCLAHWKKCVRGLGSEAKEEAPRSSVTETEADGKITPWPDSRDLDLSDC

Compound | EC50 [1] [nM] | EC50 [2] [nM]
O=C(O)c1ccc(S(=O)(=O)N2CCC(Nc3cnnc4ccc(C(c5ccc(Cl)cc5)c5ccc(Cl)cc5)cc34)CC2)o1 [Compound 14, 5-(4-(6-(bis(4-chlorophenyl)methyl)cinnolin-4-ylamino)piperidin-1-ylsulfonyl)furan-2-carboxylic acid] | 1280 | 5600
O=C(O)c1ccc(CCN2CCC(Nc3cnnc4ccc(C(c5ccc(Cl)cc5)c5ccc(Cl)cc5)cc34)CC2)cc1 [Compound 31, 4-(2-(4-(6-(bis(4-chlorophenyl)methyl)cinnolin-4-ylamino)piperidin-1-yl)ethyl)benzoic acid] | 6640 | > 10000
Clc1ccc(C(c2ccc(Cl)cc2)c2ccc3nncc(N4CCC(Nc5ccccc5)CC4)c3c2)cc1 [Compound 29, 1-[6-[bis(4-chlorophenyl)methyl]cinnolin-4-yl]-N-phenylpiperidin-4-amine] | 99 | > 10000
O=C(O)c1ccccc1S(=O)(=O)N1CCC(Nc2cnnc3ccc(C(c4ccc(Cl)cc4)c4ccc(Cl)cc4)cc23)CC1 [Compound 19, 2-(4-(6-(bis(4-chlorophenyl)methyl)cinnolin-4-ylamino)piperidin-1-ylsulfonyl)benzoic acid] | 5940 | > 10000
O=C(O)c1ccc(CN2CCC(Nc3cnnc4ccc(C(c5ccc(Cl)cc5)c5ccc(Cl)cc5)cc34)CC2)cc1 [Compound 13, 4-((4-(6-(bis(4-chlorophenyl)methyl)cinnolin-4-ylamino)piperidin-1-yl)methyl)benzoic acid] | 1440 | > 10000
O=S(=O)(N1CCC(Nc2cnnc3ccc(C(O)(c4ccc(Cl)cc4)c4ccc(Cl)cc4)cc23)CC1)C(F)(F)F [Compound 1, bis(4-chlorophenyl)(4-((1-((trifluoromethyl)sulfonyl)piperidin-4-yl)amino)cinnolin-6-yl)methanol] | 455 | > 10000
Clc1ccc(C(c2ccc(Cl)cc2)c2ccc3nncc(NC4CCN(Cc5ccccc5)C4)c3c2)cc1 (stereo not drawn) [Compound 28, N-(1-benzylpyrrolidin-3-yl)-6-(bis(4-chlorophenyl)methyl)cinnolin-4-amine] | 1690 | > 10000
O=C(O)c1cccc(CCN2CCC(Nc3cnnc4ccc(C(c5ccc(Cl)cc5)c5ccc(Cl)cc5)cc34)CC2)c1 [Compound 23, 3-[2-[4-([6-[bis(4-chlorophenyl)methyl]cinnolin-4-yl]amino)piperidin-1-yl]ethyl]benzoic acid] | 5090 | > 10000
O=C(O)c1cccc(CCNc2cnnc3ccc(C(c4ccc(Cl)cc4)c4ccc(Cl)cc4)cc23)c1 [Compound 38, 3-(2-(6-(bis(4-chlorophenyl)methyl)cinnolin-4-ylamino)ethyl)benzoic acid] | 4500 | 3980
Clc1ccc(C(c2ccc(Cl)cc2)c2ccc3nncc(N4CCN(Cc5ccccc5)CC4)c3c2)cc1 [Compound 22, 4-(4-benzylpiperazin-1-yl)-6-(bis(4-chlorophenyl)methyl)cinnoline] | 6540 | > 10000
O=C(O)c1cccc(CN2CCC(Nc3cnnc4ccc(C(c5ccc(Cl)cc5)c5ccc(Cl)cc5)cc34)CC2)c1 [Compound 12, 3-[[4-([6-[bis(4-chlorophenyl)methyl]cinnolin-4-yl]amino)piperidin-1-yl]methyl]benzoic acid] | 302 | 6500
O=S(=O)(N1CCN(c2cnnc3ccc(C(c4ccc(Cl)cc4)c4ccc(Cl)cc4)cc23)CC1)C(F)(F)F [Compound 24, 6-[bis(4-chlorophenyl)methyl]-4-[4-(trifluoromethane)sulfonylpiperazin-1-yl]cinnoline] | 261 | > 10000
O=C(O)c1ccccc1CN1CCC(Nc2cnnc3ccc(C(c4ccc(Cl)cc4)c4ccc(Cl)cc4)cc23)CC1 [Compound 18, 2-((4-(6-(bis(4-chlorophenyl)methyl)cinnolin-4-ylamino)piperidin-1-yl)methyl)benzoic acid] | 9500 | 9900
Oc1ccc(CNc2cnnc3ccc(C(c4ccc(Cl)cc4)c4ccc(Cl)cc4)cc23)cc1 [Compound 21, 4-((6-(bis(4-chlorophenyl)methyl)cinnolin-4-ylamino)methyl)phenol] | 1160 | 5930
O=C(O)c1ccc(S(=O)(=O)N2CCC(Nc3cnnc4ccc(C(c5ccc(Cl)cc5)c5ccc(Cl)cc5)cc34)CC2)cc1 [Compound 10, 4-(4-(6-(bis(4-chlorophenyl)methyl)cinnolin-4-ylamino)piperidin-1-ylsulfonyl)benzoic acid] | 302 | 1480

Results, then the molecule that gave them:

EC50 [1] [nM] | EC50 [2] [nM] | Compound
11 | 396 | COc1ccc(C(c2ccc(Cl)cc2)c2ccc3nncc(NC4CCN(S(=O)(=O)C(F)(F)F)CC4)c3c2)cc1 (stereo not drawn) [Compound 35, 6-((4-chlorophenyl)(4-methoxyphenyl)methyl)-N-(1-(trifluoromethylsulfonyl)piperidin-4-yl)cinnolin-4-amine]
35 | 2460 | Clc1ccc(C(c2ccc(Cl)cc2)c2ccc3nncc(NCCc4ccccc4)c3c2)cc1 [Compound 25, 6-(bis(4-chlorophenyl)methyl)-N-phenethylcinnolin-4-amine]
79 | 4700 | O=S(=O)(N1CCC(Nc2cnnc3ccc(C(c4ccc(F)cc4)c4ccc(F)cc4)cc23)CC1)C(F)(F)F [Compound 33, 6-(bis(4-fluorophenyl)methyl)-N-(1-(trifluoromethylsulfonyl)piperidin-4-yl)cinnolin-4-amine]
181 | 5250 | O=C(O)c1cccc(S(=O)(=O)N2CCC(Nc3cnnc4ccc(C(c5ccc(Cl)cc5)c5ccc(Cl)cc5)cc34)CC2)c1 [Compound 11, 3-(4-(6-(bis(4-chlorophenyl)methyl)cinnolin-4-ylamino)piperidin-1-ylsulfonyl)benzoic acid]
28 | 665 | O=S(=O)(N1CCC(Nc2cnnc3ccc(C(c4ccc(Cl)cc4)c4nccs4)cc23)CC1)C(F)(F)F (stereo not drawn) [Compound 36, 6-((4-chlorophenyl)(thiazol-2-yl)methyl)-N-(1-(trifluoromethylsulfonyl)piperidin-4-yl)cinnolin-4-amine]
40 | 1980 | O=C(O)c1csc(S(=O)(=O)N2CCC(Nc3cnnc4ccc(C(c5ccc(Cl)cc5)c5ccc(Cl)cc5)cc34)CC2)c1 [Compound 32, 5-[4-([6-[bis(4-chlorophenyl)methyl]cinnolin-4-yl]amino)piperidine-1-sulfonyl]thiophene-3-carboxylic acid]
254 | > 10000 | OC(c1ccc(Cl)cc1)(c1ccc(Cl)cc1)c1ccc2nncc(NCc3cccc(C(F)(F)F)c3)c2c1 [Compound 6, bis(4-chlorophenyl)(4-((3-(trifluoromethyl)benzyl)amino)cinnolin-6-yl)methanol]
196 | 3580 | COc1ccc(CNc2cnnc3ccc(C(c4ccc(Cl)cc4)c4ccc(Cl)cc4)cc23)cc1 [Compound 20, 6-(bis(4-chlorophenyl)methyl)-N-(4-methoxybenzyl)cinnolin-4-amine]
13 | 3350 | O=S(=O)(N1CCC(Nc2cnnc3ccc(C(c4ccc(Cl)cc4)c4ccc(Cl)cc4)cc23)CC1)C(F)(F)F [Compound 5, 6-(bis(4-chlorophenyl)methyl)-N-(1-((trifluoromethyl)sulfonyl)piperidin-4-yl)cinnolin-4-amine]
